According to patent publication US20080176952A1, “Management of Ophthalmologic Disorders, Including Macular Degeneration” (priority 2004, published 2008):

What was measured:
tLRAT [1] = target: T1, tLRAT (Homo sapiens, UniProt O95237); conditions: comparison value; no observable turnover under the same conditions; read-out: KM as acyl donor in the LRAT reaction; cited from earlier work
T1 construct: This form of LRAT has the two N and C-terminal transmembrane domains of LRAT truncated; made in house
T1 sequence (O95237 31-196 limits assumed): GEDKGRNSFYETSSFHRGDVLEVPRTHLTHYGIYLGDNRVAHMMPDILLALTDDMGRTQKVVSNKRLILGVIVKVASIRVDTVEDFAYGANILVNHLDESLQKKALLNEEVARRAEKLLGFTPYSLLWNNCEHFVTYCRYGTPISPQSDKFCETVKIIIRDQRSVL

RPE65 = target: T2, RPE65 (Bos taurus, UniProt Q28175); assay: Competitive binding with 3H-all-trans-retinyl palmitate to RPE65 (buffer exchange); parameters: species or system bovine; conditions: 6 μM retinoic acid, 0.5 μM RPE65, 0.65 μM 3H-all-trans-retinyl palmitate
T2 construct: Frozen bovine eyecups devoid of retinas were purchased from W. L. Lawson Co; tissue W. L. Lawson Co; host or cells: bovine eyecups (retinal pigment epithelium)
T2 sequence (Q28175 whole entry): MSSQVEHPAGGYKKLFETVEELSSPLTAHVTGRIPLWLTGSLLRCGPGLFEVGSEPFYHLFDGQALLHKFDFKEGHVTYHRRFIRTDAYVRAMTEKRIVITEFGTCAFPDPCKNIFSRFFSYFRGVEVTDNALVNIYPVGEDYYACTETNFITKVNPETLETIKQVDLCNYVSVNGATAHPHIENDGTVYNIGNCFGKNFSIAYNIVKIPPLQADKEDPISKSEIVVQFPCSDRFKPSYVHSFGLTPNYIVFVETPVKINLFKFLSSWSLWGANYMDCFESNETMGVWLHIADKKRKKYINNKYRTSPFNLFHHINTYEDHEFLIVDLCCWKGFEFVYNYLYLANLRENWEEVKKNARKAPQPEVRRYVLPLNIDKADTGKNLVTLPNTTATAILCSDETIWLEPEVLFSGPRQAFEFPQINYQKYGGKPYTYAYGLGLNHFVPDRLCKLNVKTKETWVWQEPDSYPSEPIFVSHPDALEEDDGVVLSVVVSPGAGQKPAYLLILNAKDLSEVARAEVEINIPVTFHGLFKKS
Experimental: Competitive binding of retinoic acid (all-trans and 13-cis) and all-trans-retinyl palmitate to RPE65: Buffer exchange experiments were performed to investigate the abilities of the retinoic acids (all-trans and 13-cis) to displace all-trans-retinyl palmitate binding from RPE65. To RPE65 (0.5 μM) (PBS, 1% CHAPS, pH 7.4), was added 6 μM of retinoic acid (all-trans and 13-cis) and incubated at 4° C. for 30 min. A control sample of RPE65 was incubated minus retinoic acids at 4° C. for 30 min. At the end of this incubation, the samples were incubated for 30 min with ^3H-all-trans-retinyl palmitate (0.65 ∥M, 20.31. Ci/mmol). At the end of this incubation period the buffer (PBS-1% CHAPS) was exchanged 10^4 fold with a Centricon 30K MWCO filter. The sample retained and the buffer flow through were counted on a liquid scintillation counter, to measure the amount of ^3H-all-trans-retinyl palmitate retained.
Competitive binding of retinoic acid (all-trans and 13-cis) and all-trans-retinyl palmitate to RPE65: Buffer exchange experiments were performed to investigate the abilities of the retinoic acids (all-trans and 13-cis) to displace all-trans-retinyl palmitate binding from RPE65. […] The sample retained and the buffer flow through were counted on a liquid scintillation counter, to measure the amount of ^3H-all-trans-retinyl palmitate retained. […]

[2] = tested on: 11-cis-retinol biosynthesis (IMH activity) in retinal pigment epithelial membrane system; assay: Effect on 11-cis-retinol biosynthesis (IMH activity) in RPE membranes; format: biochemical, bovine; conditions: membranes pre-incubated with vitamin A before inhibitor; 60 μM; data not shown
Experimental: A control reaction mixture without any inhibitor was also incubated at room temperature for 15 min. At the end of the min incubation, all-trans-retinol [11-12-^3H2] (0.2 μM) was added to the reaction mixtures (100 mM Tris pH 8.0, […] of RPE protein, 0.2% BSA 100 μM of DPPC, 1 mM of DTT and 0.2 μM all-trans-retinol [11-12-^3H2]) and incubated at room temperature for 30 min. At the end of this 30 minutes of incubation, an aliquot of the reactions were quenched to verify the equal addition of all-trans-retinol [11,12-^3H2] and the effect of these inhibitors on LRAT. After this the control reaction mixture was incubated with atRA (60 & 6 μM), 13cRA (60 & 6 μM) or 4-HPR (60 & 6 μM) for 15 min. Now all the reaction mixtures were incubated with 30 μM of apo-rCRALBP (100 mM Tris pH 8.0, 7.7 μg of RPE protein, 0.2% BSA 100 μM of DPPC, 1 mM of DTT 30 μM apo-rCRALBP and 0.2 μM all-trans-retinol [11-12-^3H2]) at 37° C. for 30 minutes. At the end of this incubation period the 200 μL reaction mixture was quenched by the addition of 750 μL ice cold methanol after which 100 μL of 1M sodium chloride solution was added, and 500 μl hexane (containing butylated hydroxy toluene at 1 mg/mL) was added to effect extraction of the retinoids. The retinoids were analyzed as previously described (27). The amount of 11-cis-retinol formed was used as a measurement of IMH activity. All experiments were performed in triplicate and the average values of these measurements were used for analysis.
A control reaction mixture without any inhibitor was also incubated at room temperature for 15 min. At the end of the min incubation, all-trans-retinol [11-12-^3H2] (0.2 μM) was added to the reaction mixtures (100 mM Tris pH 8.0, 76.7 μg of RPE protein, 0.2% BSA 100 μM of DPPC, 1 mM of DTT and 0.2 μM all-trans-retinol [11-12-^3H2]) and incubated at room temperature for 30 min. […] The retinoids were analyzed as previously described (27). […]

tLRAT [3] = target: T1, tLRAT; assay: Isomeric preference of the mRPE65/tLRAT mediated esterification of retinols; format: biochemical; conditions: compared to vitamin A; 0.02 μM mRPE65, 5 μM tLRAT
Experimental: Isomeric preference of the mRPE65/tLRAT mediated esterification of retinols: The effect of mRPE65 on the processing of 11-cis- and all-trans-retinols was determined by monitoring the formation of tLRAT catalyzed retinyl esters from added all-trans-retinol [11,12-^3H2], 11-cis-retinol [15-^3H] and mRPE65. The reaction mixture (volume 0.1 mL) contains 100 mM Tris (pH 8.4), 5 μM of tLRAT 0.3% CHAPS, 1 mM dithiothreitol and 0.2 μM of all-trans-retinol [11,12-^3H2] or 11-cis-retinol [15-^3H] and mRPE65 ([…] 200 μM/0.4% DPPC/BSA was incubated for 10 min at room temperature. After 10 min the reaction was quenched with 500 μL methanol, 100 μL of water and 500 μL of hexane. The amount of retinyl palmitate formed, as determined by normal phase-HPLC, was used as a measure of activity. Each experiment was done in triplicate, and the data points used are an average of these three points. The standard error was presented as error bars.
11-cis-retinol, the direct product of IMH action, is also esterified (FIG. 12A). […] (2) all-trans-retinol (2 μM) and mRPE65 (0.02 μM). (3) 11-cis-retinol (2 μM) and DPPC/BSA (250 μM/0.4%). (4) all-trans-retinol (2 μM) and DPPC/BSA (250 μM/0.4%). All reaction mixtures contain 100 mM Tris pH 8.4, 1 mM dithiothreitol, 1 mM EDTA and 5 μM tLRAT.

[4] = tested on: mRPE65 / IMH activity in RPE membranes; assay: Effect of 11-cis-retinol mediated depalmitoylation of mRPE65 on generation of 11-cis-retinol in RPE membranes; format: biochemical, bovine; conditions: RPE membranes pretreated with 10 μM, then UV and vitamin A
Experimental: Effect of 11-cis-retinol mediated depalmitoylation of mRPE65 on the generation of 11-cis-retinol: To 1 mL of buffered suspension of RPE membranes (100 mM Tris pH 8.0, 80 μg of protein) was added 10 μM of 11-cis-retinol and incubated at room temp. for 45 min. A control reaction mixture without 11-cis-retinol was also incubated at room temperature for 45 min. At the end of the 45 min incubation, the reaction mixtures were exposed to UV light (354 nm) for 10 min to destroy the 11-cis-retinoids. All-trains-retinol [11-12-^3H2] (0.1 μM) was then added to the reaction mixtures (100 mM Tris pH 8.0, 80 μg of RPE protein 5% BSA and 0.1 μM all-trans-retinol [11-12-^3H2], and incubated at 37° C. 100 μL aliquot of the reactions were quenched after 0, 5, 10, 15, 20, 30, 45, 60, 90, 120 and 150 min by the addition of 500 μL methanol after which 100 μL of H2O was added, and 500 μl hexane (containing butylated hydroxy toluene at 1 mg/mL) was added to effect extraction of the retinoids. The retinoids were analyzed as previously described (Winston and Rando 1998). The amount of 11-cis-retinol formed was used as a measurement of IMH activity. All experiments were performed in triplicate and the average values of these measurements were used for analysis. […]

Q: Which Km (tLRAT [1]) does the source give for `CCCCCCCCCCCCCCCC(=O)OC[C@H](COP(=O)([O-])OCC[N+](C)(C)C)OC(=O)CCCCCCCCCCCCCCC` [DPPC, dipalamitoyl phosphatidylcholine] here?
A: 1.4 µM

Q: Which “competition with 3H-all-trans-retinyl palmitate binding to RPE65” value (RPE65) does the source give for `CC1=C(/C=C/C(C)=C/C=C/C(C)=C/C(=O)O)C(C)(C)CCC1` [all-trans-retinoic acid] here?
A: competes with the binding

Q: What about the “inhibition of 11-cis-retinol formation” value [2] of the same molecule?
A: not susceptible to inhibition

Q: Which results are given for `CC1=C(/C=C/C(C)=C/C=C\C(C)=C\CO)C(C)(C)CCC1` [11-cis-retinol]?
A: substrate preference in tLRAT/mRPE65 mediated esterification (palmitoylation) (tLRAT [3]): superior substrate; effect of pretreatment on 11-cis-retinol synthesis [4]: distinct lag period before product synthesis occurs
